Columns and labels:
dogs with CLM/SM = settings: affected dogs, placebo-controlled treatment trial; cited from earlier work
[1] = system: CKCS symptomatic for CLM/SM; settings: cited from earlier work
[2] = system: voltage-gated calcium channel α2δ subunits; settings: cited from earlier work
[3] = system: dogs with CLM/SM (neuropathic pain); assay: Pilot study and validation of the Questionnaire (CHASE score) in CLM/SM dogs; format: in vivo, dog
Protocol: Please think about how your dog has behaved over the past week and use the scale to tell us how well the phrases describe your dog or what he/she is doing.
Summary values for untransformed and unweighted scores across the five final questions are presented below.
Intervention by a board-certified neurologist and prescription of pregabalin at 5-10 mg/kg twice daily relieved clinical signs and reduced CHASE scores to within the normal range, indicating responsiveness of the questionnaire to standard-of-care medical treatment. […] Using the Questionnaire to solicit owner feedback on disease severity and its impacts on affect and quality of life in this manner, owners and the veterinary neurologist concurred on treatment effects in this 100% of cases. This is to be expected given the potency of pregabalin in the treatment of neuropathic pain; however, no owner assessment tool has ever been reported to detect said effects so sensitively. For example, in a randomized controlled study by Thofner et al. (2020), even the very high dose range of 13 to 19 mg/kg pregabalin yielded concurrence between veterinarian and owner in only 52% of assessments of dogs with CLM/SM.

SMILES: CC(C)C[C@H](CN)CC(=O)O [pregabalin]
- phantom scratching (dogs with CLM/SM): effectively reduce phantom scratching
- effect size ([1]; CKCS symptomatic for CLM/SM, crossover placebo-controlled): 0.45
- numerical rating scale (NRS) mean score during treatment ([1]; liquid formulation of pregabalin, placebo phase 4.24): 3.17 units
- potency and binding affinity compared with gabapentin [2]: better potency and binding affinity than gabapentin
- treated dogs exhibiting improvements of at least 5 points ([3]; 8 treated dogs, pregabalin 5-10 mg/kg twice daily): 100%
- Questionnaire (CHASE) score, Mean ([3]; Treated CLM/SM dogs, n=8, untransformed and unweighted scores across the five final questions, pregabalin 5-10 mg/kg twice daily): 4.4
- improvements in symptom severity on the Questionnaire ([3]; each of the 8 treated dogs, pregabalin 5-10 mg/kg twice daily): at least 5 points
- effect size ([3]; equivalent to improvement of at least 5 points on the Questionnaire): ≥ 1.04
